Each block holds one compound with its values, some of them ahead of it.
Columns and labels:
[1] = molecular target: Ribosomal protein S6 kinase alpha-4 (Homo sapiens) (UniProt O75676); conditions: at 10 µM
[2] = molecular target: Transient receptor potential cation channel subfamily M member 6 (Homo sapiens) (UniProt Q9BX84); assay: Selectivity interaction (KinomeScan (DiscoverX)) EUB0001079a TRPM6; conditions: at 1 µM
[3] = molecular target: T1, Ephrin type-B receptor 3 (Homo sapiens) (UniProt P54753); assay: Selectivity interaction (SelectScreen profiling (Invitrogen)) EUB0000607a EPHB3; conditions: at 2 µM
T1 sequence (whole entry): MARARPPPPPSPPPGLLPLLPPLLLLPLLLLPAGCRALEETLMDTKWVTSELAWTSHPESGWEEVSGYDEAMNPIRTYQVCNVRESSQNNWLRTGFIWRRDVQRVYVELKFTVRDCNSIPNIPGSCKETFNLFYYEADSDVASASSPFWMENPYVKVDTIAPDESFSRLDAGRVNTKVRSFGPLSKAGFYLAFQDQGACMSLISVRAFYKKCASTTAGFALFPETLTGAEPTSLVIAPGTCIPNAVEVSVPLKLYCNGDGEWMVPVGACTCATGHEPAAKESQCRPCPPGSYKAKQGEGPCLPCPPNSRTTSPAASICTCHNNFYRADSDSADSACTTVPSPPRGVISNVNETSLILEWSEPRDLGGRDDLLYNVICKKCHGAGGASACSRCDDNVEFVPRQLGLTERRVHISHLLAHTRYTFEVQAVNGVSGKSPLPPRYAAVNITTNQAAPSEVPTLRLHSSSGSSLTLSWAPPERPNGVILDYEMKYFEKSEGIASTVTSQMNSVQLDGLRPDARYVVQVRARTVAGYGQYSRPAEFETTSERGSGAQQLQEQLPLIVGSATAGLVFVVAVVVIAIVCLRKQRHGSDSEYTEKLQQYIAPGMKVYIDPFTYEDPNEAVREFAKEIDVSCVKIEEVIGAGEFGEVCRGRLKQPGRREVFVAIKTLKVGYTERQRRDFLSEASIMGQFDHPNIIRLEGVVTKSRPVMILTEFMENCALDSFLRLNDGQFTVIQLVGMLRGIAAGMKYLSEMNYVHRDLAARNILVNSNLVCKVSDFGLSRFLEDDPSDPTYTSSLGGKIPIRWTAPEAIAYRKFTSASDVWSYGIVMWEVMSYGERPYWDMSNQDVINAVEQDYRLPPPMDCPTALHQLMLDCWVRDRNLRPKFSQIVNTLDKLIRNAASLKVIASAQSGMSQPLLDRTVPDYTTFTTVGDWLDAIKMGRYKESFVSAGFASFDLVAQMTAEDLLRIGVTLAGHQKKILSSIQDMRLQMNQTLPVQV

[4] = molecular target: Ribosomal protein S6 kinase alpha-5 (Homo sapiens) (UniProt O75582); assay: Selectivity interaction (ActivX KiNativ screen (ex vivo kinase selectivity in human PBMCs)) EUB0001619a RPS6KA5; type: cell-based; conditions: PBMC, at 1 µM
Sequence of Ribosomal protein S6 kinase alpha-5 (Homo sapiens) (O75582 whole entry, looked up): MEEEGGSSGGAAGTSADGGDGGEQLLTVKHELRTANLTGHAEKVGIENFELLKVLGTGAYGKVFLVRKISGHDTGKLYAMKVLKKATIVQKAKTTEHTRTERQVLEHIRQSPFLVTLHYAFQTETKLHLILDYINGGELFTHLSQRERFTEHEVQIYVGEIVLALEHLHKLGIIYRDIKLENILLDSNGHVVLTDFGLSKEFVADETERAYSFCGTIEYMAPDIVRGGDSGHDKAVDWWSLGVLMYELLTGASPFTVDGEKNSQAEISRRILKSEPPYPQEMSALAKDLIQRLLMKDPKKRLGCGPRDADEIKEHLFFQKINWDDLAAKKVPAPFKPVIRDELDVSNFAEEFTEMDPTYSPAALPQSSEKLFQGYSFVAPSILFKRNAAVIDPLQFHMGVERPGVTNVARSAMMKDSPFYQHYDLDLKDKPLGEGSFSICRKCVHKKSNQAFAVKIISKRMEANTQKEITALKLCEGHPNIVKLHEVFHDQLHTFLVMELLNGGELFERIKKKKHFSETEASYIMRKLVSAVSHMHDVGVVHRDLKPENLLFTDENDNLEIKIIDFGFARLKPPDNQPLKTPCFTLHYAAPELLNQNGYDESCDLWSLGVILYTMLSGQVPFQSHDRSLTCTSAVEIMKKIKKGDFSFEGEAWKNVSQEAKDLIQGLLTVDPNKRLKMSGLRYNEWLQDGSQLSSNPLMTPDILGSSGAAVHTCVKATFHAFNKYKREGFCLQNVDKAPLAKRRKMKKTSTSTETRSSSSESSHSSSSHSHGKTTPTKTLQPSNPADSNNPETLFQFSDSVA

[5] = molecular target: Dual specificity tyrosine-phosphorylation-regulated kinase 1A (Homo sapiens, UniProt Q13627); assay: Selectivity interaction (KinomeScan (DiscoverX)) EUB0000045b DYRK1A
[6] = molecular target: Serine/threonine-protein kinase pim-1 (Homo sapiens, UniProt P11309); assay: Selectivity interaction (KinomeScan (DiscoverX)) EUB0000045b PIM1
Sequence of Serine/threonine-protein kinase pim-1 (P11309 whole entry, looked up): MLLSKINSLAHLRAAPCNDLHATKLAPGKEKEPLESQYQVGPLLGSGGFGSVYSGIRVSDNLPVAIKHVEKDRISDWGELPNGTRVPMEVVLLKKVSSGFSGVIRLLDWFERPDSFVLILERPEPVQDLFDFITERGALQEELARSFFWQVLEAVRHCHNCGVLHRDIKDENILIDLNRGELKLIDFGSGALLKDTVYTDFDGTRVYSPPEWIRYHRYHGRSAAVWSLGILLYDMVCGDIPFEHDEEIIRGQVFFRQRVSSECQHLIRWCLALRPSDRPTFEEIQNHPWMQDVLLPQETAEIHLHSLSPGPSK

[7] = molecular target: RAC-beta serine/threonine-protein kinase (Homo sapiens) (UniProt P31751); assay: Selectivity interaction (KinomeScan (DiscoverX)) EUB0000045b AKT2
Sequence of RAC-beta serine/threonine-protein kinase (Homo sapiens) (P31751 whole entry): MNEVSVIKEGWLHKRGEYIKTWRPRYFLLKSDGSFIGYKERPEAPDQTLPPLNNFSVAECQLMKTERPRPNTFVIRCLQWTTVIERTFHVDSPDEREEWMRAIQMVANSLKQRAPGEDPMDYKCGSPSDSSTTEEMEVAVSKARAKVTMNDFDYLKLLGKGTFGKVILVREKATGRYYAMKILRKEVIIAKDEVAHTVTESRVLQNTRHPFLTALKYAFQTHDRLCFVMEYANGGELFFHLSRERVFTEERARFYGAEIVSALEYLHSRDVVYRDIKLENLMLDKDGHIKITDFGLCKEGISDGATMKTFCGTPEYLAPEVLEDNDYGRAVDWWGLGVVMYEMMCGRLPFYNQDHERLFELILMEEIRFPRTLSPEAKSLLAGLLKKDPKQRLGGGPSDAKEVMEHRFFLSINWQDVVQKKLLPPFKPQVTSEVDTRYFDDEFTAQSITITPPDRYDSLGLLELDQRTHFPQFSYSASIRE

[8] = molecular target: Phosphatidylinositol 4-phosphate 5-kinase type-1 gamma (Homo sapiens) (UniProt O60331); assay: Selectivity interaction (KinomeScan (DiscoverX)) EUB0000595a PIP5K1C; conditions: at 10 µM
Sequence of Phosphatidylinositol 4-phosphate 5-kinase type-1 gamma (Homo sapiens) (O60331 whole entry): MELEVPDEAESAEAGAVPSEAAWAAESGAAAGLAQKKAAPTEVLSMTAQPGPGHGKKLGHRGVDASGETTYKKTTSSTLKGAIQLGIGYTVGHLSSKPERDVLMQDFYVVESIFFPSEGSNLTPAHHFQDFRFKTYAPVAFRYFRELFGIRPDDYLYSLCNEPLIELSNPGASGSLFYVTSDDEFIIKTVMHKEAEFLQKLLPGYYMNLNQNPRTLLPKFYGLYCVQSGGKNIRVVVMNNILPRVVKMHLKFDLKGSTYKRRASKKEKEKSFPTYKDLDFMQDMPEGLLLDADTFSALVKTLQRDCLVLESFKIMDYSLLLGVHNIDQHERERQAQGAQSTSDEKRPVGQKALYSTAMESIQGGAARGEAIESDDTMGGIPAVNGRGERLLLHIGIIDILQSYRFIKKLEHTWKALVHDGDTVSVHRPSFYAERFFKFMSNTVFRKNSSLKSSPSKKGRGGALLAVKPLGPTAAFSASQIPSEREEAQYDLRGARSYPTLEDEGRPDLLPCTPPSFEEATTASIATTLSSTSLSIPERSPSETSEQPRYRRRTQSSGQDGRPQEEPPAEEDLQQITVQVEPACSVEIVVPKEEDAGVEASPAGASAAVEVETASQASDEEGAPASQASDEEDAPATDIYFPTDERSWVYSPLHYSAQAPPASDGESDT

[9] = molecular target: T2, Histone-arginine methyltransferase CARM1 (Homo sapiens) (UniProt Q86X55); conditions: MM1.S, at 3 µM
T2 sequence (whole entry): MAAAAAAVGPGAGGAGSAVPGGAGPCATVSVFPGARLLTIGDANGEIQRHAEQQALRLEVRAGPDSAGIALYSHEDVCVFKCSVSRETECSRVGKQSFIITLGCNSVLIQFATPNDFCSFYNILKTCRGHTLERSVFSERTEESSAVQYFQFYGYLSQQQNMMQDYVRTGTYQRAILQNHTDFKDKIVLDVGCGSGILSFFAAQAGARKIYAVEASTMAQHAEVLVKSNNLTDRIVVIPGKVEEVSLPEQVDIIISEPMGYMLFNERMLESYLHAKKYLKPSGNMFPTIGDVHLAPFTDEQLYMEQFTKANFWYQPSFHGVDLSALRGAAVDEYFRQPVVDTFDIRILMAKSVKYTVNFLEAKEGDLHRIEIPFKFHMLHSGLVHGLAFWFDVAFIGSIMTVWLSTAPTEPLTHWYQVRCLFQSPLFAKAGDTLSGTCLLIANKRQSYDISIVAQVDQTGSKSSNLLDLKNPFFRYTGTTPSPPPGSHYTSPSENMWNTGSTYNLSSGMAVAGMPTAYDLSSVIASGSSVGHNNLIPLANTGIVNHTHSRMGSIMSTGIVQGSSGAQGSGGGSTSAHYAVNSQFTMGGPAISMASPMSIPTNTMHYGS

[10] = molecular target: 5'-AMP-activated protein kinase catalytic subunit alpha-1 (Homo sapiens, UniProt Q13131); conditions: at 10 µM
Sequence of 5'-AMP-activated protein kinase catalytic subunit alpha-1 (Q13131 whole entry, looked up): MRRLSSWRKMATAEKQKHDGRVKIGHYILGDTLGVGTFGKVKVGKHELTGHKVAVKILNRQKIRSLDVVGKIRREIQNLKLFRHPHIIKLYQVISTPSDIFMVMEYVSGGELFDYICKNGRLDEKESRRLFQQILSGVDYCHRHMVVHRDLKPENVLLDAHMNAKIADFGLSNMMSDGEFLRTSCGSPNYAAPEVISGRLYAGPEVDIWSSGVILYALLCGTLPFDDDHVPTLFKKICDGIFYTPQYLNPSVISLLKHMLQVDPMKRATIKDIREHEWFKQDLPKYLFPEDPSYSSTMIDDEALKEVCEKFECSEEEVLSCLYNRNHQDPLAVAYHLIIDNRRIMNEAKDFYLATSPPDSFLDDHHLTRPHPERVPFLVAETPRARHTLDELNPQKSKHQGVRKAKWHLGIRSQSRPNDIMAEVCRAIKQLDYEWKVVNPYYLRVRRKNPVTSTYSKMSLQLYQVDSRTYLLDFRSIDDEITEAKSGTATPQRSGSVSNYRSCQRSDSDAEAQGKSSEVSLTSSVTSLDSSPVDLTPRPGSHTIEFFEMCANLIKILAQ

[11] = molecular target: Serine/threonine-protein kinase PRP4 homolog (Homo sapiens) (UniProt Q13523); assay: Selectivity interaction (ActivX KiNativ screen (kinase selectivity in THP-1 cell lysates)) EUB0000639a PRPF4; type: subcellular; conditions: lysate, at 0.2 µM
[12] = molecular target: T3, Activin receptor type-1B (Homo sapiens) (UniProt P36896); assay: Selectivity interaction (KinomeScan (DiscoverX)) EUB0001049a ACVR1B; conditions: at 1 µM
T3 sequence (whole entry): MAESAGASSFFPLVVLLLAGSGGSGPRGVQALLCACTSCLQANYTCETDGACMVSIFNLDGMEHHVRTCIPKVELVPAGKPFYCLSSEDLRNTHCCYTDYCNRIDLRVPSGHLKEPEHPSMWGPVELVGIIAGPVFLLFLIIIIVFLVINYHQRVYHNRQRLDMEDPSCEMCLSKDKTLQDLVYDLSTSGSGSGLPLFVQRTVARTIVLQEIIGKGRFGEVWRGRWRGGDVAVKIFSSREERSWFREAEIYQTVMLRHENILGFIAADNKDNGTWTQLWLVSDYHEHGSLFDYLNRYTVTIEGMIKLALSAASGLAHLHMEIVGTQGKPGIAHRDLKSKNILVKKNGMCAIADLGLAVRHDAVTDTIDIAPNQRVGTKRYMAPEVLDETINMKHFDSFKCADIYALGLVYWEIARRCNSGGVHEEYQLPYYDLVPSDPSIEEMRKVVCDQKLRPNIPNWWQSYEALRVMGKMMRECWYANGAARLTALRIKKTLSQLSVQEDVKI

[13] = molecular target: Tyrosine-protein kinase ABL2 (Homo sapiens, UniProt P42684); assay: Selectivity interaction (Kinase panel (Z-LYTE Assay)) EUB0001632a ABL2; conditions: at 10 µM
Sequence of Tyrosine-protein kinase ABL2 (P42684 whole entry): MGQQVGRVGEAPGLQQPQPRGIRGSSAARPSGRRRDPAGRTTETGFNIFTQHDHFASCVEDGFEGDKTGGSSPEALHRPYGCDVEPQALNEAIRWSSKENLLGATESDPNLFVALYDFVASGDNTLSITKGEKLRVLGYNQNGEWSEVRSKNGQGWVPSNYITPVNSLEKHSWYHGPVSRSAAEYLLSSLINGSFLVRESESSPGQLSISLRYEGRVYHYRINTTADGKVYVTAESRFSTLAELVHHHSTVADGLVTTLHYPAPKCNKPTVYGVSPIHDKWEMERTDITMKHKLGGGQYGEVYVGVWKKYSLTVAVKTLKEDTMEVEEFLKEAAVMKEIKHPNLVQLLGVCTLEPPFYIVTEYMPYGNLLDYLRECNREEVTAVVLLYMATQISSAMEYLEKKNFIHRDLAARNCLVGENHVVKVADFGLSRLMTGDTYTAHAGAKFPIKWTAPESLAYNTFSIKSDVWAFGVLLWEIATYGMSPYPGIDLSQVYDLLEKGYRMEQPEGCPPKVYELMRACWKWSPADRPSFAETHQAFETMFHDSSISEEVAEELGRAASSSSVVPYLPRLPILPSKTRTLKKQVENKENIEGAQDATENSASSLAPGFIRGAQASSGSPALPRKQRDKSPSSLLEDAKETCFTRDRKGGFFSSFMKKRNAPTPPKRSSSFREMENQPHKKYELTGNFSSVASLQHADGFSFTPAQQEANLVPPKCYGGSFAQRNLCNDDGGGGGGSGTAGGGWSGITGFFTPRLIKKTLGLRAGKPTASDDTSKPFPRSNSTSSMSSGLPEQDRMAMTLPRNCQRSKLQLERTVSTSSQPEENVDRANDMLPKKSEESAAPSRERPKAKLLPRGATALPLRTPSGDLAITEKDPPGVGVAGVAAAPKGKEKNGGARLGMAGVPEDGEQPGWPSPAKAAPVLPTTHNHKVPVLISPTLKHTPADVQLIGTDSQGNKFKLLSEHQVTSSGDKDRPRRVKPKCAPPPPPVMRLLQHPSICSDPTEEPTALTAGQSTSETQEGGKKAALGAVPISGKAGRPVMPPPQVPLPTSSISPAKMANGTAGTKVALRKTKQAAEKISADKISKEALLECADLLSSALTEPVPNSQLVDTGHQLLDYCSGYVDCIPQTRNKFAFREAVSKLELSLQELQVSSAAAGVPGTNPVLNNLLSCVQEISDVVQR

Sequence of Ribosomal protein S6 kinase alpha-4 (Homo sapiens) (O75676 whole entry, looked up): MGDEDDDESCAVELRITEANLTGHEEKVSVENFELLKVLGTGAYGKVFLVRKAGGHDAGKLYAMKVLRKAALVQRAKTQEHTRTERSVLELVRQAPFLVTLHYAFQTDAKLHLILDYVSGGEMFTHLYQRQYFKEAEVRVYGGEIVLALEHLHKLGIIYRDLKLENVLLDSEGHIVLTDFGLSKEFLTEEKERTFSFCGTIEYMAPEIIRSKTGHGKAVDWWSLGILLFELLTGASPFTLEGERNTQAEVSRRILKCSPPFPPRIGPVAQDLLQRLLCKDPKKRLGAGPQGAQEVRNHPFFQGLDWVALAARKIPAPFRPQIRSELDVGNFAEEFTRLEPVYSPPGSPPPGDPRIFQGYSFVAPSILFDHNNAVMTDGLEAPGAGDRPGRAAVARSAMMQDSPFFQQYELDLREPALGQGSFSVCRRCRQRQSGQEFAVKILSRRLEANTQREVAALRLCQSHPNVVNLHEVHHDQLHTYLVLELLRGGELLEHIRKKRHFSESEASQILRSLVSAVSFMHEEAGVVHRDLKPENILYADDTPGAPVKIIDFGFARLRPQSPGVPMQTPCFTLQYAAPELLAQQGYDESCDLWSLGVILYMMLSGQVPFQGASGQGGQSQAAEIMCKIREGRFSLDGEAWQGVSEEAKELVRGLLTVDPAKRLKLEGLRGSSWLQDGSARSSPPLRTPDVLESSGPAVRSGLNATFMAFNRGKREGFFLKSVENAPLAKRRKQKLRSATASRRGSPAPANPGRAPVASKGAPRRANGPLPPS

% of control [1]: 100%
SMILES: CCN(CC)CCCCNc1ncc2cc(-c3cc(OC)cc(OC)c3)c(NC(=O)NC(C)(C)C)nc2n1

SMILES: Nc1cnc(N2CCc3cc(S(=O)(=O)Nc4c(F)cc(Cl)cc4F)cc(N4CCCC4=O)c32)nc1 [TP-020n]
% of control [2]: 93%

SMILES: CNC(=O)Nc1ccc(-c2nc(N3CC4CCC(C3)O4)c3cnn(C4CCC5(CC4)OCCO5)c3n2)cc1
% of inhibition [3]: 3%

SMILES: N#Cc1cccc(-c2c[nH]c3ncnc(N4CCOCC4)c23)c1
% of inhibition [4]: 20%

SMILES: C=CC(=O)Nc1cc(-n2c(=O)ccc3cnc4ccc(-c5ccc(NS(C)(=O)=O)cc5)cc4c32)ccc1C
% of control ([5]; at 1 µM): 100% | % of control ([5]; at 10 µM): 62% | % of control ([6]; at 1 µM): 100% | % of control ([6]; at 10 µM): 86% | % of control ([7]; at 1 µM): 100% | % of control ([7]; at 10 µM): 100%

SMILES: COCC(=O)NC/C=C/c1ccc2ncnc(Nc3ccc(Oc4ccc(C)nc4)c(C)c3)c2c1 [CP-724714]
% of control [8]: 93%

% of growth rate [9]: -31%
SMILES: CNCCN1CCC(c2cc(CN(C)C(=O)c3cccc(Oc4ccccc4)c3)ccn2)CC1

SMILES: Cc1cc([C@@H](C)Nc2ccccc2C(=O)O)c2nc(N3CCOCC3)cc(=O)n2c1 [AZD-6482]
% of control [10]: 100%

% of inhibition [11]: 21.9%
SMILES: CC[C@@H]1[C@H](F)C(=O)N[C@@H]1COc1nccc2cc(C(N)=O)c(OC)cc12 [ZIMLOVISERTIB]

SMILES: COc1cc(Nc2nc(C)cc(-c3cnn4nc(OC)ccc34)n2)cc(C(F)(F)F)c1
% of control [12]: 100%

% of control [13]: 6.33%
SMILES: Cn1cc(-n2cnc3c(NCc4nc5cc(Cl)c(Cl)cc5[nH]4)nc(N4CCOCC4)nc32)cn1
